Measurements published in the NIST ThermoML archive (doi:10.1016/j.jct.2014.09.020).
± gives the expanded uncertainty stated by the source.

Assay: xn = mol fraction of the nth substance listed
Details: Liquid; for speed of sound: Frequency=4 MHz, Single path-length method; for mass density: Vibrating tube method

For c1ccc2c(c1)CCCC2 [1,2,3,4-tetrahydronaphthalene] + CCCCCCCCCCCCCCCC, which speed of sound (313.15 K, 100 kPa, x2 = 0) is on record?
The speed of sound was 1413 ± 2 m/s.

What about the speed of sound (313.15 K, 100 kPa, x2 = 0.2491) of the same molecule?
Its speed of sound is 1346 ± 2 m/s.

And the speed of sound (313.15 K, 100 kPa, x2 = 0.4995)?
The speed of sound was 1315 ± 2 m/s.

What about the speed of sound (313.15 K, 100 kPa, x2 = 0.75) of the same molecule?
The speed of sound was 1298 ± 2 m/s.

What about the mass density (313.15 K, 100 kPa, x2 = 0) of the same molecule?
The mass density was 952.93 ± 1.2 kg/m3.

And the mass density (313.15 K, 100 kPa, x2 = 0.2491)?
The mass density was 871.85 ± 1.1 kg/m3.

What about the mass density (313.15 K, 100 kPa, x2 = 0.4995) of the same molecule?
The mass density was 820.52 ± 1.1 kg/m3.

What about the mass density (313.15 K, 100 kPa, x2 = 0.75) of the same molecule?
Its mass density is 785.3 ± 1 kg/m3.

What about the speed of sound (313.15 K, 5000 kPa, x2 = 0) of the same molecule?
The speed of sound was 1434 ± 3 m/s.

What about the speed of sound (313.15 K, 5000 kPa, x2 = 0.2491) of the same molecule?
Its speed of sound is 1371 ± 2 m/s.

What about the speed of sound (313.15 K, 5000 kPa, x2 = 0.4995) of the same molecule?
Its speed of sound is 1342 ± 2 m/s.

And the speed of sound (313.15 K, 5000 kPa, x2 = 0.75)?
The speed of sound was 1326 ± 2 m/s.

And the speed of sound (313.15 K, 10000 kPa, x2 = 0)?
Its speed of sound is 1455 ± 3 m/s.

What about the speed of sound (313.15 K, 10000 kPa, x2 = 0.2491) of the same molecule?
The speed of sound was 1395 ± 2 m/s.

What about the speed of sound (313.15 K, 10000 kPa, x2 = 0.4995) of the same molecule?
Its speed of sound is 1367 ± 2 m/s.

What about the speed of sound (313.15 K, 10000 kPa, x2 = 0.75) of the same molecule?
The speed of sound was 1352 ± 2 m/s.

What about the speed of sound (313.15 K, 15000 kPa, x2 = 0) of the same molecule?
The speed of sound was 1475 ± 3 m/s.

And the speed of sound (313.15 K, 15000 kPa, x2 = 0.2491)?
The speed of sound was 1418 ± 2 m/s.

And the speed of sound (313.15 K, 15000 kPa, x2 = 0.4995)?
The speed of sound was 1391 ± 2 m/s.

What about the speed of sound (313.15 K, 15000 kPa, x2 = 0.75) of the same molecule?
The speed of sound was 1378 ± 2 m/s.

And the speed of sound (313.15 K, 20000 kPa, x2 = 0)?
Its speed of sound is 1495 ± 3 m/s.

And the speed of sound (313.15 K, 20000 kPa, x2 = 0.2491)?
Its speed of sound is 1441 ± 2 m/s.

What about the speed of sound (313.15 K, 20000 kPa, x2 = 0.4995) of the same molecule?
Its speed of sound is 1414 ± 2 m/s.

What about the speed of sound (313.15 K, 20000 kPa, x2 = 0.75) of the same molecule?
Its speed of sound is 1403 ± 2 m/s.

What about the speed of sound (313.15 K, 25000 kPa, x2 = 0) of the same molecule?
The speed of sound was 1513 ± 3 m/s.

And the speed of sound (313.15 K, 25000 kPa, x2 = 0.2491)?
The speed of sound was 1461 ± 3 m/s.

And the speed of sound (313.15 K, 25000 kPa, x2 = 0.4995)?
Its speed of sound is 1438 ± 2 m/s.

What about the speed of sound (313.15 K, 25000 kPa, x2 = 0.75) of the same molecule?
Its speed of sound is 1427 ± 2 m/s.

And the speed of sound (323.15 K, 100 kPa, x2 = 0)?
The speed of sound was 1374 ± 2 m/s.

And the speed of sound (323.15 K, 100 kPa, x2 = 0.2491)?
Its speed of sound is 1311 ± 2 m/s.

What about the speed of sound (323.15 K, 100 kPa, x2 = 0.4995) of the same molecule?
The speed of sound was 1278 ± 2 m/s.

What about the speed of sound (323.15 K, 100 kPa, x2 = 0.75) of the same molecule?
Its speed of sound is 1262 ± 2 m/s.

And the mass density (323.15 K, 100 kPa, x2 = 0)?
The mass density was 944.99 ± 1.2 kg/m3.

What about the mass density (323.15 K, 100 kPa, x2 = 0.2491) of the same molecule?
The mass density was 864.36 ± 1.1 kg/m3.

What about the mass density (323.15 K, 100 kPa, x2 = 0.4995) of the same molecule?
The mass density was 813.31 ± 1.1 kg/m3.

And the mass density (323.15 K, 100 kPa, x2 = 0.75)?
The mass density was 778.26 ± 1 kg/m3.

And the speed of sound (323.15 K, 5000 kPa, x2 = 0)?
Its speed of sound is 1397 ± 3 m/s.

What about the speed of sound (323.15 K, 5000 kPa, x2 = 0.2491) of the same molecule?
The speed of sound was 1337 ± 2 m/s.

And the speed of sound (323.15 K, 5000 kPa, x2 = 0.4995)?
Its speed of sound is 1306 ± 2 m/s.

What about the speed of sound (323.15 K, 5000 kPa, x2 = 0.75) of the same molecule?
The speed of sound was 1291 ± 2 m/s.

What about the speed of sound (323.15 K, 10000 kPa, x2 = 0) of the same molecule?
The speed of sound was 1419 ± 3 m/s.

What about the speed of sound (323.15 K, 10000 kPa, x2 = 0.2491) of the same molecule?
The speed of sound was 1361 ± 2 m/s.

What about the speed of sound (323.15 K, 10000 kPa, x2 = 0.4995) of the same molecule?
Its speed of sound is 1333 ± 2 m/s.

What about the speed of sound (323.15 K, 10000 kPa, x2 = 0.75) of the same molecule?
Its speed of sound is 1319 ± 2 m/s.

And the speed of sound (323.15 K, 15000 kPa, x2 = 0)?
The speed of sound was 1439 ± 3 m/s.

What about the speed of sound (323.15 K, 15000 kPa, x2 = 0.2491) of the same molecule?
Its speed of sound is 1385 ± 2 m/s.

And the speed of sound (323.15 K, 15000 kPa, x2 = 0.4995)?
Its speed of sound is 1358 ± 2 m/s.

And the speed of sound (323.15 K, 15000 kPa, x2 = 0.75)?
Its speed of sound is 1345 ± 2 m/s.

What about the speed of sound (323.15 K, 20000 kPa, x2 = 0) of the same molecule?
Its speed of sound is 1459 ± 3 m/s.

And the speed of sound (323.15 K, 20000 kPa, x2 = 0.2491)?
Its speed of sound is 1408 ± 2 m/s.

What about the speed of sound (323.15 K, 20000 kPa, x2 = 0.4995) of the same molecule?
The speed of sound was 1383 ± 2 m/s.

And the speed of sound (323.15 K, 20000 kPa, x2 = 0.75)?
The speed of sound was 1369 ± 2 m/s.

And the speed of sound (323.15 K, 25000 kPa, x2 = 0)?
Its speed of sound is 1480 ± 3 m/s.

What about the speed of sound (323.15 K, 25000 kPa, x2 = 0.2491) of the same molecule?
The speed of sound was 1429 ± 2 m/s.

What about the speed of sound (323.15 K, 25000 kPa, x2 = 0.4995) of the same molecule?
The speed of sound was 1406 ± 2 m/s.

What about the speed of sound (323.15 K, 25000 kPa, x2 = 0.75) of the same molecule?
Its speed of sound is 1393 ± 2 m/s.

And the speed of sound (333.15 K, 100 kPa, x2 = 0)?
Its speed of sound is 1335 ± 2 m/s.

What about the speed of sound (333.15 K, 100 kPa, x2 = 0.2491) of the same molecule?
Its speed of sound is 1274 ± 2 m/s.

And the speed of sound (333.15 K, 100 kPa, x2 = 0.4995)?
Its speed of sound is 1242 ± 2 m/s.

And the speed of sound (333.15 K, 100 kPa, x2 = 0.75)?
Its speed of sound is 1224 ± 2 m/s.

What about the mass density (333.15 K, 100 kPa, x2 = 0) of the same molecule?
The mass density was 937.04 ± 1.2 kg/m3.

What about the mass density (333.15 K, 100 kPa, x2 = 0.2491) of the same molecule?
The mass density was 856.85 ± 1.1 kg/m3.

What about the mass density (333.15 K, 100 kPa, x2 = 0.4995) of the same molecule?
The mass density was 806.07 ± 1.1 kg/m3.

And the mass density (333.15 K, 100 kPa, x2 = 0.75)?
The mass density was 771.21 ± 1 kg/m3.

And the speed of sound (333.15 K, 5000 kPa, x2 = 0)?
The speed of sound was 1359 ± 3 m/s.

And the speed of sound (333.15 K, 5000 kPa, x2 = 0.2491)?
Its speed of sound is 1300 ± 2 m/s.

What about the speed of sound (333.15 K, 5000 kPa, x2 = 0.4995) of the same molecule?
The speed of sound was 1271 ± 2 m/s.

What about the speed of sound (333.15 K, 5000 kPa, x2 = 0.75) of the same molecule?
Its speed of sound is 1253 ± 2 m/s.

And the speed of sound (333.15 K, 10000 kPa, x2 = 0)?
Its speed of sound is 1383 ± 3 m/s.

And the speed of sound (333.15 K, 10000 kPa, x2 = 0.2491)?
Its speed of sound is 1326 ± 2 m/s.

What about the speed of sound (333.15 K, 10000 kPa, x2 = 0.4995) of the same molecule?
Its speed of sound is 1298 ± 2 m/s.

And the speed of sound (333.15 K, 10000 kPa, x2 = 0.75)?
Its speed of sound is 1282 ± 2 m/s.

And the speed of sound (333.15 K, 15000 kPa, x2 = 0)?
The speed of sound was 1402 ± 3 m/s.

And the speed of sound (333.15 K, 15000 kPa, x2 = 0.2491)?
The speed of sound was 1350 ± 2 m/s.

What about the speed of sound (333.15 K, 15000 kPa, x2 = 0.4995) of the same molecule?
The speed of sound was 1325 ± 2 m/s.

And the speed of sound (333.15 K, 15000 kPa, x2 = 0.75)?
Its speed of sound is 1309 ± 2 m/s.

What about the speed of sound (333.15 K, 20000 kPa, x2 = 0) of the same molecule?
The speed of sound was 1425 ± 3 m/s.

And the speed of sound (333.15 K, 20000 kPa, x2 = 0.2491)?
The speed of sound was 1374 ± 2 m/s.

And the speed of sound (333.15 K, 20000 kPa, x2 = 0.4995)?
The speed of sound was 1350 ± 2 m/s.

And the speed of sound (333.15 K, 20000 kPa, x2 = 0.75)?
The speed of sound was 1335 ± 2 m/s.

And the speed of sound (333.15 K, 25000 kPa, x2 = 0)?
The speed of sound was 1445 ± 3 m/s.

And the speed of sound (333.15 K, 25000 kPa, x2 = 0.2491)?
Its speed of sound is 1396 ± 2 m/s.

And the speed of sound (333.15 K, 25000 kPa, x2 = 0.4995)?
The speed of sound was 1374 ± 2 m/s.

What about the speed of sound (333.15 K, 25000 kPa, x2 = 0.75) of the same molecule?
The speed of sound was 1361 ± 2 m/s.
